Measurements published in PubChem BioAssay AID248 (DTP/NCI, 2004).
Where “and” joins values, the source holds several entries; their conditions need not be identical. Equal entries are not always repeated. Inconclusive results and toxic doses are left out. Rule as the data show it: active = T/C of 150% or more; inactive = T/C below 125%.

Test system: L1210 leukemia ip in BDF1 mice, survival T/C
Test: NCI In Vivo Anticancer Drug Screen. Data for tumor model L1210 Leukemia (intraperitoneal) in B6D2F1 (BDF1) mice
Settings: endpoint: mean survival time, higher = longer survival
Summary of the method: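 Survival endpoint. Drug-treated group vs vehicle group, expressed as T divided by C. Tumor passaged by transplantation.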

[1] = dose: 100.0 mg/kg/injection, schedule: Q01DX001 (ip), vehicle: saline with Tween-80
[2] = dose: 200.0 mg/kg/injection, schedule: Q01DX001 (ip), vehicle: saline with Tween-80
[3] = dose: 400.0 mg/kg/injection, schedule: Q01DX001 (ip), vehicle: saline with Tween-80
[4] = dose: 100.0 mg/kg/injection, schedule: Q01DX009 (ip), vehicle: Klucel (hydroxypropylcellulose) (HPC)
[5] = dose: 200.0 mg/kg/injection, schedule: Q01DX009 (ip), vehicle: Klucel (hydroxypropylcellulose) (HPC)
[6] = dose: 400.0 mg/kg/injection, schedule: Q01DX009 (ip), vehicle: Klucel (hydroxypropylcellulose) (HPC)
[7] = dose: 100.0 mg/kg/injection, schedule: Q01DX009 (ip), vehicle: saline with Tween-80
[8] = dose: 200.0 mg/kg/injection, schedule: Q01DX009 (ip), vehicle: saline with Tween-80
[9] = dose: 400.0 mg/kg/injection, schedule: Q01DX009 (ip), vehicle: saline with Tween-80
[10] = dose: 100.0 mg/kg/injection, schedule: Q04DX002 (ip), vehicle: saline with Tween-80
[11] = dose: 200.0 mg/kg/injection, schedule: Q04DX002 (ip), vehicle: saline with Tween-80
[12] = dose: 100.0 mg/kg/injection, schedule: Q04DX003 (ip), vehicle: saline

Measured: T/C

COC(=O)CCCCCN1C(=O)c2cccc([N+](=O)[O-])c2C1=O
inactive: [1] 104 % of control | [2] 97 % of control | [3] 100 % of control

Nc1ncc(Br)c2ccccc12
inactive: dose: 100.0 mg/kg/injection, schedule: Q04DX003 (ip), vehicle: saline with Tween-80 96 % of control | dose: 200.0 mg/kg/injection, schedule: Q04DX003 (ip), vehicle: saline with Tween-80 103 % of control

C/C(=N/N=C(/C)c1ccccc1)c1ccccc1
inactive: dose: 50.0 mg/kg/injection, schedule: Q04DX003 (ip), vehicle: Klucel (hydroxypropylcellulose) (HPC) 110 % of control | [4] 96 % of control | dose: 100.0 mg/kg/injection, schedule: Q04DX003 (ip), vehicle: Klucel (hydroxypropylcellulose) (HPC) 94 % of control | [5] 100 % of control | dose: 200.0 mg/kg/injection, schedule: Q04DX003 (ip), vehicle: Klucel (hydroxypropylcellulose) (HPC) 103 % of control | [6] 96 % of control | dose: 400.0 mg/kg/injection, schedule: Q04DX003 (ip), vehicle: Klucel (hydroxypropylcellulose) (HPC) 97 % of control

CCOC(=O)Nc1cc(NC(c2ccccc2)c2ccccc2)c([N+](=O)[O-])c(NC/C(C)=N/NC(N)=O)n1
inactive: dose: 100.0 mg/kg/injection, schedule: Q01DX001 (ip), vehicle: carboxymethylcellulose (CMC) 95 % of control | dose: 200.0 mg/kg/injection, schedule: Q01DX001 (ip), vehicle: carboxymethylcellulose (CMC) 93 % of control | dose: 400.0 mg/kg/injection, schedule: Q01DX001 (ip), vehicle: carboxymethylcellulose (CMC) 89 % of control

Cc1c(O)cccc1F
inactive: dose: 25.0 mg/kg/injection, schedule: Q04DX002 (ip), vehicle: Klucel (hydroxypropylcellulose) (HPC) 98 % of control | dose: 50.0 mg/kg/injection, schedule: Q04DX002 (ip), vehicle: Klucel (hydroxypropylcellulose) (HPC) 102 % of control | dose: 100.0 mg/kg/injection, schedule: Q04DX002 (ip), vehicle: Klucel (hydroxypropylcellulose) (HPC) 111 % of control and 120 % of control

O/N=C1/CCCC/C1=C/c1ccc(Cl)cc1
inactive: [7] 104 % of control | [8] 111 % of control | [9] 88 % of control

CCN(CC)C(=S)[S][Sn]([Cl])([c]1ccccc1)[c]1ccccc1
inactive: dose: 5.0 mg/kg/injection, schedule: Q01DX001 (ip), vehicle: other 102 % of control | dose: 10.0 mg/kg/injection, schedule: Q01DX001 (ip), vehicle: other 104 % of control | dose: 20.0 mg/kg/injection, schedule: Q01DX001 (ip), vehicle: other 102 % of control | dose: 40.0 mg/kg/injection, schedule: Q01DX001 (ip), vehicle: other 102 % of control | dose: 80.0 mg/kg/injection, schedule: Q01DX001 (ip), vehicle: other 104 % of control

O=[N+]([O-])c1ccc(NC(=S)Nc2cccc(C(F)(F)F)c2)cc1
inactive: [4] 90 % of control | [5] 91 % of control | [6] 100 % of control

CCCNC(=O)Oc1c(C(C)C)ccc(C)c1Cl
inactive: [7] 108 % of control | [8] 88 % of control | [9] 95 % of control

Cc1cc(N(CCOS(C)(=O)=O)CCOS(C)(=O)=O)ccc1C=Nc1cccc(C(=O)O)c1
inactive: dose: 2.5 mg/kg/injection, schedule: Q04DX003 (ip), vehicle: Klucel (hydroxypropylcellulose) (HPC) 111 % of control | dose: 5.0 mg/kg/injection, schedule: Q04DX003 (ip), vehicle: Klucel (hydroxypropylcellulose) (HPC) 113 % of control | dose: 10.0 mg/kg/injection, schedule: Q04DX003 (ip), vehicle: Klucel (hydroxypropylcellulose) (HPC) 122 % of control | dose: 20.0 mg/kg/injection, schedule: Q04DX003 (ip), vehicle: Klucel (hydroxypropylcellulose) (HPC) 120 % of control | dose: 40.0 mg/kg/injection, schedule: Q04DX003 (ip), vehicle: Klucel (hydroxypropylcellulose) (HPC) 115 % of control

C=CP(c1ccccc1)c1ccccc1
inactive: dose: 100.0 mg/kg/injection, schedule: Q01DX009 (ip), vehicle: saline sonified 103 % of control | dose: 200.0 mg/kg/injection, schedule: Q01DX009 (ip), vehicle: saline sonified 110 % of control

CCOCC(=O)Oc1ccc(/C=N/NC(N)=S)nc1
inactive: [10] 116 % of control | [11] 113 % of control | dose: 400.0 mg/kg/injection, schedule: Q04DX002 (ip), vehicle: saline with Tween-80 116 % of control

CN1CCCCC1CCN1c2ccccc2Sc2ccc(S(C)=O)cc21 (stereo unspecified)
inactive: dose: 6.25 mg/kg/injection, schedule: Q01DX009 (ip), vehicle: saline 97 % of control | dose: 12.5 mg/kg/injection, schedule: Q01DX009 (ip), vehicle: saline 98 % of control and 101 % of control and 108 % of control | dose: 25.0 mg/kg/injection, schedule: Q01DX009 (ip), vehicle: saline 100 % of control and 101 % of control (2×) | dose: 25.0 mg/kg/injection, schedule: Q04DX003 (ip), vehicle: saline 112 % of control | dose: 50.0 mg/kg/injection, schedule: Q01DX009 (ip), vehicle: saline 119 % of control | dose: 50.0 mg/kg/injection, schedule: Q04DX003 (ip), vehicle: saline 115 % of control | [12] 105 % of control

CC(=O)CC=NCCN=CCC(C)=O
inactive: [1] 98 % of control | [2] 103 % of control | [3] 95 % of control

CCCCN(CCCC)S(=O)(=O)CCC
inactive: dose: 50.0 mg/kg/injection, schedule: Q04DX002 (ip), vehicle: saline with Tween-80 101 % of control | [10] 97 % of control | [11] 97 % of control

O=C1CCSCCN1
inactive: dose: 100.0 mg/kg/injection, schedule: Q01DX009 (ip), vehicle: saline 98 % of control | [12] 97 % of control | dose: 200.0 mg/kg/injection, schedule: Q01DX009 (ip), vehicle: saline 103 % of control | dose: 200.0 mg/kg/injection, schedule: Q04DX003 (ip), vehicle: saline 97 % of control | dose: 400.0 mg/kg/injection, schedule: Q01DX009 (ip), vehicle: saline 101 % of control | dose: 400.0 mg/kg/injection, schedule: Q04DX003 (ip), vehicle: saline 95 % of control

CC1(N=C(N)CSSCC(N)=NC2(C)CCC(C(C)(C)C)CC2)CCC(C(C)(C)C)CC1 (stereo unspecified)
inactive: dose: 0.7 mg/kg/injection, schedule: Q01DX009 (ip), vehicle: other 93 % of control and 96 % of control | dose: 1.0 mg/kg/injection, schedule: Q01DX001 (ip), vehicle: other 107 % of control | dose: 1.0 mg/kg/injection, schedule: Q01DX009 (ip), vehicle: other 101 % of control and 103 % of control | dose: 1.56 mg/kg/injection, schedule: Q01DX009 (ip), vehicle: other 97 % of control and 101 % of control | dose: 2.0 mg/kg/injection, schedule: Q01DX001 (ip), vehicle: other 105 % of control | dose: 2.35 mg/kg/injection, schedule: Q01DX009 (ip), vehicle: other 105 % of control and 90 % of control | dose: 3.12 mg/kg/injection, schedule: Q01DX009 (ip), vehicle: carboxymethylcellulose (CMC) 112 % of control | dose: 4.0 mg/kg/injection, schedule: Q01DX001 (ip), vehicle: other 111 % of control | dose: 5.0 mg/kg/injection, schedule: Q04DX003 (ip), vehicle: other 95 % of control | dose: 6.25 mg/kg/injection, schedule: Q01DX009 (ip), vehicle: carboxymethylcellulose (CMC) 102 % of control | dose: 6.25 mg/kg/injection, schedule: Q01DX009 (ip), vehicle: other 98 % of control | dose: 10.0 mg/kg/injection, schedule: Q04DX003 (ip), vehicle: other 105 % of control | dose: 12.5 mg/kg/injection, schedule: Q01DX009 (ip), vehicle: other 102 % of control | dose: 12.5 mg/kg/injection, schedule: Q04DX002 (ip), vehicle: other 104 % of control and 90 % of control | dose: 25.0 mg/kg/injection, schedule: Q04DX002 (ip), vehicle: carboxymethylcellulose (CMC) 102 % of control and 112 % of control
